From PubChem BioAssay (NCI)
“And” between values parts separate entries of the source, which are not always exact repeats. Identical values can stand only once.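 48-hour exposure; five concentrations; linearly interpolated endpoints. GI50 = concentration required for 50% inhibition of growth. Definition used: TGI = concentration required for complete inhibition of growth.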

Legend:
Assay in all cases: inhibition of tumour cell growth, NCI panel, 48 h
K-562 leukemia = system: K-562 leukemia
T-47D breast = system: T-47D breast
MDA-N = system: MDA-N
HL-60(TB) leukemia = system: HL-60(TB) leukemia
DU-145 prostate = system: DU-145 prostate
EKVX NSCLC = system: EKVX NSCLC
OVCAR-8 ovarian = system: OVCAR-8 ovarian
NCI-H522 lung = system: NCI-H522 lung
HOP-92 NSCLC = system: HOP-92 NSCLC
OVCAR-4 ovarian = system: OVCAR-4 ovarian

**Q.** For `CC(=O)Nc1nc2c(=O)c3ccccc3sc2s1`, which TGI (K-562 leukemia) is on record?
**A.** Its TGI is > 100 µM.

**Q.** What about the TGI (T-47D breast) of the same compound?
**A.** Its TGI is > 100 µM.

**Q.** What about the TGI (MDA-N) of the same compound?
**A.** The TGI was > 100 µM.

**Q.** What about the TGI (HL-60(TB) leukemia) of the same compound?
**A.** The TGI was > 100 µM.

**Q.** What about the TGI (DU-145 prostate) of the same compound?
**A.** Its TGI is > 100 µM.

**Q.** What about the TGI (EKVX NSCLC) of the same compound?
**A.** Its TGI is > 100 µM.

**Q.** What about the TGI (OVCAR-8 ovarian) of the same compound?
**A.** Its TGI is > 100 µM.

**Q.** How did the TGI (K-562 leukemia) turn out when `C[C@H]1CCC/C=C/[C@@H]2C[C@H](OC(=O)CN(C)C)C[C@H]2[C@H](O)/C=C/C(=O)O1` was run?
**A.** Its TGI is > 100 µM.

**Q.** What about the TGI (MDA-N) of the same compound?
**A.** Its TGI is > 100 µM.

**Q.** What about the TGI (NCI-H522 lung) of the same compound?
**A.** The TGI was 1.39 µM.

**Q.** And the TGI (HOP-92 NSCLC)?
**A.** Its TGI is > 56.1 µM.

**Q.** What about the TGI (OVCAR-4 ovarian) of the same compound?
**A.** Its TGI is 9.64 µM.

**Q.** And the TGI (HL-60(TB) leukemia)?
**A.** Its TGI is 6.2 µM.

**Q.** And the TGI (DU-145 prostate)?
**A.** The TGI was > 33.8 µM.

**Q.** And the TGI (EKVX NSCLC)?
**A.** Its TGI is 22.2 µM.

**Q.** And the TGI (OVCAR-8 ovarian)?
**A.** Its TGI is 5.54 µM.

**Q.** For `Cc1cn([C@H]2C[C@@H](N3C(=O)c4ccccc4C3=O)[C@@H](CO[Si](C)(C)C(C)(C)C)O2)c(=O)[nH]c1=O`, which TGI (K-562 leukemia) is on record?
**A.** The TGI was > 100 µM.

**Q.** What about the TGI (T-47D breast) of the same compound?
**A.** Its TGI is > 100 µM.

**Q.** What about the TGI (MDA-N) of the same compound?
**A.** Its TGI is > 100 µM.

**Q.** What about the TGI (NCI-H522 lung) of the same compound?
**A.** The TGI was > 100 µM.

**Q.** What about the TGI (HOP-92 NSCLC) of the same compound?
**A.** Its TGI is > 100 µM.

**Q.** What about the TGI (OVCAR-4 ovarian) of the same compound?
**A.** The TGI was > 100 µM.

**Q.** And the TGI (DU-145 prostate)?
**A.** The TGI was > 100 µM.

**Q.** And the TGI (EKVX NSCLC)?
**A.** Its TGI is > 100 µM.

**Q.** What about the TGI (OVCAR-8 ovarian) of the same compound?
**A.** Its TGI is > 100 µM.

**Q.** Which TGI (K-562 leukemia) does the source give for `COC(=O)/C(=N\N)C(C(=O)C(=O)Nc1cc(Cl)ccc1Cl)c1nc2ccc([N+](=O)[O-])cc2[nH]c1=O` (stereo not drawn) here?
**A.** The TGI was > 100 µM.

**Q.** And the TGI (T-47D breast)?
**A.** The TGI was > 100 µM.

**Q.** What about the TGI (MDA-N) of the same compound?
**A.** Its TGI is > 100 µM.

**Q.** And the TGI (NCI-H522 lung)?
**A.** Its TGI is > 100 µM.

**Q.** What about the TGI (HOP-92 NSCLC) of the same compound?
**A.** Its TGI is > 100 µM.

**Q.** And the TGI (OVCAR-4 ovarian)?
**A.** The TGI was > 100 µM.

**Q.** And the TGI (HL-60(TB) leukemia)?
**A.** The TGI was > 100 µM.

**Q.** What about the TGI (EKVX NSCLC) of the same compound?
**A.** The TGI was > 100 µM.

**Q.** And the TGI (OVCAR-8 ovarian)?
**A.** Its TGI is > 100 µM.

**Q.** How did the TGI (K-562 leukemia) turn out when `O=C(O)CCC(NC(=O)c1ccc(Nc2nc3ccc(C(F)(F)F)cc3nc2C(=O)O)cc1)C(=O)O` (stereo not drawn) was run?
**A.** The TGI was > 100 µM.

**Q.** What about the TGI (T-47D breast) of the same compound?
**A.** Its TGI is > 100 µM.

**Q.** And the TGI (MDA-N)?
**A.** Its TGI is > 100 µM.

**Q.** What about the TGI (NCI-H522 lung) of the same compound?
**A.** Its TGI is > 100 µM.

**Q.** And the TGI (HOP-92 NSCLC)?
**A.** Its TGI is > 100 µM.

**Q.** And the TGI (HL-60(TB) leukemia)?
**A.** Its TGI is > 100 µM.

**Q.** What about the TGI (DU-145 prostate) of the same compound?
**A.** The TGI was > 100 µM.

**Q.** What about the TGI (EKVX NSCLC) of the same compound?
**A.** Its TGI is > 100 µM.

**Q.** And the TGI (OVCAR-8 ovarian)?
**A.** Its TGI is > 100 µM.

**Q.** For `C/C=C(/CCC1NCCc2c1[nH]c1ccccc21)[Si](C)(C)C` (stereo not drawn), which TGI (K-562 leukemia) is on record?
**A.** Its TGI is > 100 µM.

**Q.** And the GI50 (HOP-92 NSCLC)?
**A.** The GI50 was 27 µM and 2.9 µM.

**Q.** And the TGI (HOP-92 NSCLC)?
**A.** The TGI was 90.1 µM and 11.9 µM.

**Q.** What about the TGI (OVCAR-4 ovarian) of the same compound?
**A.** Its TGI is > 100 µM and 11.9 µM.

**Q.** And the TGI (EKVX NSCLC)?
**A.** Its TGI is > 100 µM and 22.3 µM.

**Q.** And the TGI (OVCAR-8 ovarian)?
**A.** The TGI was > 100 µM and 24.4 µM.

**Q.** With `CC1OC(OC2C(OC(=O)[C@]34CCC(C)(C)C[C@H]3C3=CC[C@@H]5[C@@]6(C)CC[C@H](OC7OC(CO)C(O)C(O)C7OC7OC(CO)C(O)C(O)C7O)C(C)(C)[C@@H]6CC[C@@]5(C)[C@]3(C)CC4)OCC(O)C2O)C(O)C(O)C1OC1OCC(O)C(O)C1O` (stereo partly drawn) as the compound, how does the TGI (K-562 leukemia) read?
**A.** Its TGI is 27.6 µM.

**Q.** What about the TGI (T-47D breast) of the same compound?
**A.** The TGI was 42.3 µM.

**Q.** What about the TGI (NCI-H522 lung) of the same compound?
**A.** Its TGI is 12.1 µM.

**Q.** What about the TGI (HOP-92 NSCLC) of the same compound?
**A.** The TGI was 20.4 µM.

**Q.** What about the TGI (OVCAR-4 ovarian) of the same compound?
**A.** The TGI was 29.5 µM.

**Q.** What about the TGI (HL-60(TB) leukemia) of the same compound?
**A.** The TGI was 15.1 µM.

**Q.** What about the TGI (DU-145 prostate) of the same compound?
**A.** The TGI was 24.8 µM.

**Q.** And the TGI (EKVX NSCLC)?
**A.** The TGI was 18.6 µM.

**Q.** What about the TGI (OVCAR-8 ovarian) of the same compound?
**A.** Its TGI is 38.9 µM.

**Q.** What does the source list for `CCOc1ccc(OP2(=O)NC(=O)C=C(C)N2)cc1` (stereo not drawn)?
**A.** TGI (K-562 leukemia): > 100 µM; TGI (NCI-H522 lung): > 100 µM; TGI (HOP-92 NSCLC): > 100 µM; TGI (OVCAR-4 ovarian): > 100 µM; TGI (HL-60(TB) leukemia): > 100 µM; TGI (EKVX NSCLC): > 100 µM; TGI (OVCAR-8 ovarian): > 100 µM

**Q.** How did the TGI (T-47D breast) turn out when `c1ccc(C(NC2=NCCO2)C2CC2)cc1` (stereo not drawn) was run?
**A.** Its TGI is > 100 µM.

**Q.** And the TGI (MDA-N)?
**A.** The TGI was > 100 µM.

**Q.** And the TGI (NCI-H522 lung)?
**A.** The TGI was > 100 µM.

**Q.** And the TGI (HOP-92 NSCLC)?
**A.** Its TGI is > 100 µM.

**Q.** What about the TGI (OVCAR-4 ovarian) of the same compound?
**A.** The TGI was > 100 µM.

**Q.** What about the TGI (DU-145 prostate) of the same compound?
**A.** The TGI was > 100 µM.

**Q.** What about the TGI (EKVX NSCLC) of the same compound?
**A.** Its TGI is > 100 µM.

**Q.** And the TGI (OVCAR-8 ovarian)?
**A.** The TGI was > 100 µM.

**Q.** For `N/C(CCSCCSCC/C(N)=N\O)=N\O`, which TGI (K-562 leukemia) is on record?
**A.** The TGI was > 100 µM.

**Q.** What about the TGI (T-47D breast) of the same compound?
**A.** Its TGI is > 100 µM.

**Q.** And the TGI (MDA-N)?
**A.** The TGI was > 100 µM.

**Q.** What about the TGI (NCI-H522 lung) of the same compound?
**A.** Its TGI is > 100 µM.

**Q.** What about the TGI (HOP-92 NSCLC) of the same compound?
**A.** Its TGI is > 100 µM.

**Q.** And the TGI (OVCAR-4 ovarian)?
**A.** The TGI was > 100 µM.

**Q.** What about the TGI (HL-60(TB) leukemia) of the same compound?
**A.** The TGI was > 100 µM.

**Q.** What about the TGI (DU-145 prostate) of the same compound?
**A.** Its TGI is > 100 µM.

**Q.** What about the TGI (EKVX NSCLC) of the same compound?
**A.** The TGI was > 100 µM.

**Q.** For `COC(=O)N/N=c1\cc(C(=O)Nc2ccc(C)c(C)c2)oc2cc(O)ccc12`, which TGI (K-562 leukemia) is on record?
**A.** The TGI was > 100 µM.

**Q.** And the TGI (NCI-H522 lung)?
**A.** Its TGI is > 100 µM.

**Q.** What about the TGI (HOP-92 NSCLC) of the same compound?
**A.** Its TGI is > 100 µM.

**Q.** And the TGI (OVCAR-4 ovarian)?
**A.** The TGI was > 100 µM.

**Q.** What about the TGI (HL-60(TB) leukemia) of the same compound?
**A.** Its TGI is > 100 µM.

**Q.** What about the TGI (EKVX NSCLC) of the same compound?
**A.** Its TGI is > 100 µM.

**Q.** And the TGI (OVCAR-8 ovarian)?
**A.** The TGI was > 100 µM.

**Q.** Which TGI (K-562 leukemia) does the source give for `O=C1/C(=C/c2ccc(Br)s2)NC(=S)N1CN1CCCCC1` here?
**A.** The TGI was 59.8 µM.

**Q.** What about the TGI (T-47D breast) of the same compound?
**A.** The TGI was > 100 µM.

**Q.** What about the TGI (MDA-N) of the same compound?
**A.** Its TGI is > 100 µM.

**Q.** What about the TGI (NCI-H522 lung) of the same compound?
**A.** The TGI was 83.1 µM.

**Q.** What about the TGI (OVCAR-4 ovarian) of the same compound?
**A.** Its TGI is > 100 µM.

**Q.** And the TGI (HL-60(TB) leukemia)?
**A.** The TGI was 50 µM.

**Q.** What about the TGI (DU-145 prostate) of the same compound?
**A.** The TGI was > 100 µM.

**Q.** What about the TGI (EKVX NSCLC) of the same compound?
**A.** Its TGI is > 100 µM.

**Q.** And the TGI (OVCAR-8 ovarian)?
**A.** The TGI was > 100 µM.
